# Laboratory results taken from US8541464B2, “Treatment of atrial fibrillation” (HUYA Biosciences International LLC, priority 2009, dated 2013).
# Test: Plasma PK in Beagle dog after oral and IV administration
# Assay type: in vivo
# Set-up: AUC / CLs / Tmax / V/F (c): unit not given here; Cmax: unit: μg/mL
substance,measurement,setting,value
sulcardine sulfate,AUC,8 mg/kg fast i.v push,4.750 ± 1.778
same,CLs,8 mg/kg fast i.v push,1.850 ± 0.5911
same,K10,8 mg/kg fast i.v push,0.7378 ± 0.2645 h⁻¹
same,K12,8 mg/kg fast i.v push,1.982 ± 1.157 h⁻¹
same,K21,8 mg/kg fast i.v push,0.5196 ± 0.3149 h⁻¹
same,T1/2α,8 mg/kg fast i.v push,0.2898 ± 0.2041 h
same,T1/2β,8 mg/kg fast i.v push,6.107 ± 1.537 h
same,V/F (c),8 mg/kg fast i.v push,2.815 ± 1.714
same,AUC,40 mg/kg po,19.57 ± 2.414
same,CLs,40 mg/kg po,2.065 ± 0.2283
same,Cmax,40 mg/kg po,2.121 ± 0.4025
same,K12,40 mg/kg po,0.1806 ± 0.0817 h⁻¹
same,K21,40 mg/kg po,0.1778 ± 0.1295 h⁻¹
same,T1/2Ka,40 mg/kg po,33.98 ± 10.12 min
same,T1/2α,40 mg/kg po,1.636 ± 0.6148 h
same,T1/2β,40 mg/kg po,12.21 ± 3.412 h
same,V/F (c),40 mg/kg po,12.08 ± 2.621
same,AUC,80 mg/kg po,83.53 ± 21.27
same,CLs,80 mg/kg po,1.013 ± 0.2956
same,Cmax,80 mg/kg po,8.849 ± 1.789
same,K10,80 mg/kg po,0.1166 ± 0.0731 h⁻¹
same,K12,80 mg/kg po,-8.226 ± 16.60 h⁻¹
same,K21,80 mg/kg po,10.10 ± 19.85 h⁻¹
same,T1/2Ka,80 mg/kg po,22.09 ± 14.66 min
same,T1/2α,80 mg/kg po,1.670 ± 1.068 h
same,T1/2β,80 mg/kg po,8.631 ± 2.294 h
same,Tmax,80 mg/kg po,1.407 ± 0.6461
same,V/F (c),80 mg/kg po,16.60 ± 18.60
same,AUC,160 mg/kg po,291.6 ± 29.13
same,CLs,160 mg/kg po,0.5527 ± 0.0533
same,Cmax,160 mg/kg po,19.10 ± 3.412
same,K10,160 mg/kg po,0.0856 ± 0.0155 h⁻¹
same,K12,160 mg/kg po,-0.0620 ± 0.1371 h⁻¹
same,K21,160 mg/kg po,1.474 ± 1.562 h⁻¹
same,T1/2Ka,160 mg/kg po,49.54 ± 31.7 min
same,T1/2α,160 mg/kg po,1.758 ± 1.790 h
same,T1/2β,160 mg/kg po,9.640 ± 1.532 h
same,Tmax,160 mg/kg po,2.700 ± 1.001
same,V/F (c),160 mg/kg po,6.528 ± 0.6551
same,Cmax read from PK curve,"dogs, IV 8 mg/kg",about 10 μg/mL
